For one test, the target named is T1, HMGR from A. fulgidus (Archaeoglobus fulgidus, UniProt O28538).
T1 sequence (O28538 1-436): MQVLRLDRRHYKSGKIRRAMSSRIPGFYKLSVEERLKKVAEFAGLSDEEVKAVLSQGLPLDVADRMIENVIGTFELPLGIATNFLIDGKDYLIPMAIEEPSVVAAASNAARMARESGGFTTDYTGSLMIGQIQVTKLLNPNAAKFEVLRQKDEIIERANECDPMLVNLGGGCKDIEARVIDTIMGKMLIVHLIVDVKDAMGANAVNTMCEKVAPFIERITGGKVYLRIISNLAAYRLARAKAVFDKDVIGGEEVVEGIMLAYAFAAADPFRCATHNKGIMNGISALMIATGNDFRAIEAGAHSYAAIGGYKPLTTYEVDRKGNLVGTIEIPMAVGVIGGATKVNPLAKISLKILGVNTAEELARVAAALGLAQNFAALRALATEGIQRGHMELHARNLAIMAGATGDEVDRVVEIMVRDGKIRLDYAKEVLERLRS
As to conditions: class II HMGR, source A. fulgidus, cited from earlier work.

A further test deals with HMGR from S. aureus. The conditions noted are these: class II HMGR, source S. aureus, cited from earlier work.
For the next test, the target named is HMGR from E. faecalis (Enterococcus faecalis, UniProt Q9FD70). As to conditions: class II HMGR, source E. faecalis; read-out: Km^NADPH; cited from earlier work.
Another test concerns the target T2, HMGR from P. mevalonii (Pseudomonas mevalonii, UniProt P13702).
T2 sequence (P13702 1-428): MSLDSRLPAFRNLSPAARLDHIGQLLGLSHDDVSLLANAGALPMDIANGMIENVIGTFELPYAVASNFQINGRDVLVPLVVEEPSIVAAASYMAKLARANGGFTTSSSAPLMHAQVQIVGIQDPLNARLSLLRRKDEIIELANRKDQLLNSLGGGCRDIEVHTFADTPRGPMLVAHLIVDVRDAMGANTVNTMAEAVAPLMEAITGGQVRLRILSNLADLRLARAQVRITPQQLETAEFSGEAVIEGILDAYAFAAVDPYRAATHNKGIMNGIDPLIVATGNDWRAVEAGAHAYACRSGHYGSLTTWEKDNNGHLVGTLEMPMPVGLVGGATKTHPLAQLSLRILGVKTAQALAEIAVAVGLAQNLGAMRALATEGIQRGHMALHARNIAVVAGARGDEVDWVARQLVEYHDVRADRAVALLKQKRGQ
The conditions noted are these: class II HMGR, source P. mevalonii; read-out: Km^NADH; cited from earlier work.

The next test has as its system biomass yield. The test can be described thus: Concentration of weak organic acid required to reduce the biomass yield to 50% of the reference condition. The format is cell-based. As to conditions: concentration required to reduce the biomass yield to 50% of the reference condition.
Test [1] has as its system farnesene-producing strain. Nature of the test: Farnesene-producing strain treated with different concentrations of benzoic acid. The format is cell-based. The conditions noted are these: FIG. 8. The procedure:
Benzoic acid can be used to deplete ATP in the cell by forcing the cells to use ATP to pump out excess protons that are moved into the cytoplasm by the benzoyl […]. […] The yield (qP/qS) was calculated from measured specific sugar uptake rate and specific farnesene production rate.
Single colonies were grown on CSM agar plates, then picked into sterile 96-well microtiter plates (1.1 mL working volume Axygen) containing 360 ul of defined liquid growth medium (LGM; as referenced in Example 1, Westfall et al, 2012) with 50 mM succinate (pH 5.0) and 2% sucrose+1% maltose+2 g/L lysine grown for 72 h at 28 C. […] Taking measurements of farnesene, biomass, and total residual sugar during log phase growth (at two times, T1 and T2) allows for the determination of specific productivity, growth rate, and specific sugar uptake rate. Farnesene is measured using full-well extraction with isopropanol, and quantified by UV absorbance at 220 nm with reference to a standard curve. Biomass was measured by assaying the fluorescent signal of intracellular tryptophan with an excitation wavelength of 290 nm and detection at 350 nm (UVOD). The relationship between this tryptophan signal and actual biomass is strain-dependent, and is determined empirically for each strain assayed. We do this by measuring both UVOD and biomass absorbance (OD) just prior to the start of production plates; this gives a per-well OD/UVOD conversion factor that is then used to convert UVOD signal at the end of production runs back to biomass. Another conversion we must make in determining biomass is from optical density (OD) to dry cell weight; this is also determined empirically. […] Growth rates were determined by applying a linear regression to LN (OD) vs time. Total reducing sugars was measured by using an enzymatic determination of sucrose, fructose and glucose with an output of NADH absorption read at 340 nm, as described in various commercial kits, as such those sold by Sigma Aldrich.

Where [2] appears, read: increasing concentrations of benzoic acid.

SMILES strings stand for the structures. Where two headings read alike, the source gives them in different places.

What is called Km is the concentration of substrate that gives half-maximal velocity. Regarding `NC(=O)C1=CN([C@@H]2O[C@H](COP(=O)(O)OP(=O)(O)OC[C@H]3O[C@@H](n4cnc5c(N)ncnc54)[C@H](OP(=O)(O)O)[C@@H]3O)[C@@H](O)[C@H]2O)C=CC1` [NADPH], the values for the Km at HMGR from A. fulgidus (read-out: Km^NADPH), with HMGR from S. aureus (read-out: Km^NADPH) and on HMGR from E. faecalis were 500 µM, 70 µM and 30 µM, respectively.
In the case of `NC(=O)C1=CN([C@@H]2O[C@H](COP(=O)(O)OP(=O)(O)OC[C@H]3O[C@@H](n4cnc5c(N)ncnc54)[C@H](O)[C@@H]3O)[C@@H](O)[C@H]2O)C=CC1` [NADH], the Km at HMGR from P. mevalonii is 80 µM; at HMGR from A. fulgidus (read-out: Km^NADH), 160 µM; in the test with HMGR from S. aureus (read-out: Km^NADH) it was 100 µM.
`C/C=C/C=C/C(=O)O` [Sorbic Acid] had a YCR50 with biomass yield of 1.3 mM.
In turn, `CCC(=O)O` [Propionic Acid] yielded a YCR50 in the test with biomass yield of 20.0 mM.
Turning to `O=C(O)c1ccccc1` [Benzoic Acid], the YCR50 in the test on biomass yield is reported as 2.0 mM. The “calculated yield (qP/qS)” value in test [1] (increased benzoic acid concentrations) was “increased”. Further, in test [1] (setting [2]), the “specific farnesene productivity (qP)” value was “did not change and even increased a little at intermediate concentrations”; the “specific growth rate (mu)” value is listed as “decreased linearly”.
In turn, `CC(=O)O` [Acetic Acid] came in with a YCR50 in the test with biomass yield of 105.0 mM.
